Assay results as given in article PMC5740067 (Scientific Reports, 2017).
“Also recorded” adds a separate entry of the source. Where two headings read alike, the source gives them in different places.

Columns and labels:
[1] = system: NocT G97S; type: binding, Agrobacterium tumefaciens
[2] = molecular target: T1, NocT G97S (Agrobacterium fabrum, UniProt P35120, G97S); type: binding, Agrobacterium tumefaciens; conditions: intrinsic protein fluorescence titration; 20 °C; pH 8.0; read-out: K D (F)
T1 construct: Cloning of mature OccJ, NocT-G97S, OccJ-S91G, OccJ-N202D, LAO and LAO-Q122A; made in house; host or cells: E. coli BL21

[3] = molecular target: T1, NocT G97S; type: binding, Agrobacterium tumefaciens; conditions: ITC, 20 °C
Protocol: (§1) Isothermal titration microcalorimetry experiments were performed with an ITC200 isothermal titration calorimeter from MicroCal (GE Healthcare). The experiments were carried out at 20 °C. Protein concentration in the microcalorimeter cell (0.2 mL) varied from 20 to 150 µM. Nineteen injections of 2 µL of ligand solution (amino acids, opines and octopine derivatives) at concentration ranging from 240 µM to 1.5 mM were performed at intervals of 180 s while stirring at 500 rpm. The experimental data were fitted to theoretical titration curves with software supplied by MicroCal (ORIGIN®). This software uses the relationship between the heat generated by each injection and ΔH (enthalpy change in kcal/mol), Ka (the association binding constant in M^−1), n (the number of binding sites), total protein concentration and free and total ligand concentrations.

[4] = molecular target: T2, NocT WT (Agrobacterium fabrum, UniProt P35120); conditions: ITC; octopine; ref [6],[14]; read-out: K D (ITC) (converted); cited from earlier work
T2 construct: Cloning of mature OccJ, NocT-G97S, OccJ-S91G, OccJ-N202D, LAO and LAO-Q122A; made in house

[5] = molecular target: T3, OccJ S91G (Agrobacterium tumefaciens, UniProt P0A4F8, S91G); assay: OccJ S91G ligand binding, fluorescence titration; conditions: intrinsic protein fluorescence titration
T3 construct: The mature LAO expression plasmid, LAO-Q122A, OccJ-S91G and OccJ-N202D were chemically synthesized; pET-28a); host or cells: E. coli BL21
Protocol: (§2) Binding of ligands to OccJ, NocT, LAO and protein mutants was monitored by autofluorescence by exciting the protein at a wavelength of 295 nm and monitoring the quenching of fluorescence emission of tryptophans at 335 nm. All experiments were performed at 20 °C in 96 wells plates (1/2 Area Plate-96F, Perkin Elmer) using Tecan Infinite M1000 reader (Tecan), in 50 mM Tris-HCl pH 8.0, 150 mM NaCl buffer with a fixed amount of proteins (1 µM) and increasing concentrations of ligand. […] The data were analysed using Origin® 7 software and fitted to the equation f = ΔFluorescencemax * abs(x)/(K D + abs(x)).

[6] = molecular target: T4, OccJ WT (Agrobacterium tumefaciens, UniProt P0A4F8); assay: biochemical; type: binding
T4 construct: The mature PBP OccJ (256 aa without the signal peptide) expression plasmid was obtained by cloning the occJ gene lacking the first twenty residues; hexahistidine (C); made in house; host or cells: E. coli BL21
Protocol: as §2

[7] = molecular target: T3, OccJ S91G; type: binding; conditions: ITC, 20 °C
Protocol: as §1

[8] = molecular target: T5, OccJ N202D (Agrobacterium tumefaciens, UniProt P0A4F8, N202D); type: binding; conditions: ITC, 20 °C
T5 construct: The mature LAO expression plasmid, LAO-Q122A, OccJ-S91G and OccJ-N202D were chemically synthesized; pET-28a); host or cells: E. coli BL21
Protocol: as §1

[9] = molecular target: T2, NocT WT; conditions: fluorescence titration; octopine and nopaline; ref [6],[14]; read-out: K D (F); cited from earlier work
[10] = molecular target: T6, LAO WT (Salmonella typhimurium, UniProt P02911); assay: biochemical; type: binding, Salmonella enterica; conditions: ITC, 20 °C
T6 construct: The mature LAO expression plasmid, LAO-Q122A, OccJ-S91G and OccJ-N202D were chemically synthesized; pET-28a); host or cells: E. coli BL21
Protocol: as §1

[11] = molecular target: T5, OccJ N202D; type: binding; conditions: intrinsic protein fluorescence titration; 20 °C; pH 8.0; read-out: K D (F)
[12] = molecular target: T7, LAO Q122A (Salmonella typhimurium, UniProt P02911, Q144A); assay: LAO Q122A ligand binding, ITC; set-up: species or system Salmonella enterica; conditions: ITC, 20 °C
T7 construct: The mature LAO expression plasmid, LAO-Q122A, OccJ-S91G and OccJ-N202D were chemically synthesized; pET-28a); host or cells: E. coli BL21
Protocol: as §1

[13] = molecular target: T4, OccJ WT; assay: OccJ WT ligand binding, isothermal titration microcalorimetry; conditions: ITC, 20 °C
Protocol: as §1

T5 sequence (P0A4F8 21-276 N202D): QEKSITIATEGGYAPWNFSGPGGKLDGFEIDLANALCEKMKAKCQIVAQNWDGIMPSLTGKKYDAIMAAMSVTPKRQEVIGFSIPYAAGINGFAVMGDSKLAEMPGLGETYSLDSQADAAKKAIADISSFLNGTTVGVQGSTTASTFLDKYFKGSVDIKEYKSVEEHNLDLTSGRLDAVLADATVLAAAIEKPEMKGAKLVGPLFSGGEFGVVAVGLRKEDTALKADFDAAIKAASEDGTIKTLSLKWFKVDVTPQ
T7 sequence (P02911 23-260 Q144A): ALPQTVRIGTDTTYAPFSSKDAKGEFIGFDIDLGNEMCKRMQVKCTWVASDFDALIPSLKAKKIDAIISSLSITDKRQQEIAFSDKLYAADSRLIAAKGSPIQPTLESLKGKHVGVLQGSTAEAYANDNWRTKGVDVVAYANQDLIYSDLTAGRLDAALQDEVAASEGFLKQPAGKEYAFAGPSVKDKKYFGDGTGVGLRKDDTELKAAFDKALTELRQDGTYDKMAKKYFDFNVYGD
T1 sequence (P35120 26-283 G97S): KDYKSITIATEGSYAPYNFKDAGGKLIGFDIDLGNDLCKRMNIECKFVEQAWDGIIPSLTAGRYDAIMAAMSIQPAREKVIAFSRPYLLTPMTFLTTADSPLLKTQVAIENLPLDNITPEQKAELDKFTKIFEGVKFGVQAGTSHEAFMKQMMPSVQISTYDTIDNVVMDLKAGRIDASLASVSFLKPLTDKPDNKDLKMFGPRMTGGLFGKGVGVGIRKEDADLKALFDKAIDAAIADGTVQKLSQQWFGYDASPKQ
T4 sequence (P0A4F8 21-276): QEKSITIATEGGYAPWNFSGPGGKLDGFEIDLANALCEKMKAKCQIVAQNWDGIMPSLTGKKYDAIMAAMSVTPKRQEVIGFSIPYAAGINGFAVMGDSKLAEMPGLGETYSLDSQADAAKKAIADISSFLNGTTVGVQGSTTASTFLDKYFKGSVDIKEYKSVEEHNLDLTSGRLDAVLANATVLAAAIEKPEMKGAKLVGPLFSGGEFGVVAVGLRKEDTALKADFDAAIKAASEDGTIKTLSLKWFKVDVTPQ
T3 sequence (P0A4F8 21-276 S91G): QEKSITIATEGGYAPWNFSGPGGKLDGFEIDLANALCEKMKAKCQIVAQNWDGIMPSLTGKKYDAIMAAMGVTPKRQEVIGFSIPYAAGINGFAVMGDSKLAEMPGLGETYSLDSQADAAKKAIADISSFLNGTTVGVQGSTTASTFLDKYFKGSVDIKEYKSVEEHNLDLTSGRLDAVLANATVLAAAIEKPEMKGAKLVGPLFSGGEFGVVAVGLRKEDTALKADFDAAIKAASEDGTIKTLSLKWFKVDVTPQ
T2 sequence (P35120 26-283): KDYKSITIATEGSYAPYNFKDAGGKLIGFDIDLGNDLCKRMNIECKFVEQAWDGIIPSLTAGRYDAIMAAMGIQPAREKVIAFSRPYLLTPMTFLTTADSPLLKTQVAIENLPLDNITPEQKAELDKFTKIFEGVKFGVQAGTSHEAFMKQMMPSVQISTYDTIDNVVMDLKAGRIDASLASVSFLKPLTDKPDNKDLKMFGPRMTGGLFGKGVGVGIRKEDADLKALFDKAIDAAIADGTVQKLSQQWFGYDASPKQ
T6 sequence (P02911 23-260): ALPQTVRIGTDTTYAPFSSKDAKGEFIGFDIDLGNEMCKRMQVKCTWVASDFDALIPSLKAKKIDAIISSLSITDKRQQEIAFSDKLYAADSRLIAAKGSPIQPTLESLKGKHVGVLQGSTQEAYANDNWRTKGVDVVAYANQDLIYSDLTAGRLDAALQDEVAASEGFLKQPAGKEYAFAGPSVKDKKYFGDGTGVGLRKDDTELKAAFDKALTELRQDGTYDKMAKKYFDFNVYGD

C[C@@H](N[C@@H](CCCN=C(N)N)C(=O)O)C(=O)O [octopine]
fold lower affinity of NocT G97S compared with the WT [1]: 10 fold
Kd [2]: 63.8 ± 13.8 µM
Enthalpy (ΔH) [3]: 0.687 kcal/mol
Entropic contribution (-TΔS) [3]: -6.42 kcal/mol
Entropy (ΔS) [3]: 21.9 cal/mol/deg
Free enthalpy (ΔG) [3]: -5.733 kcal/mol
Kd [3]: 52 µM
Kd [4]: 9.9 µM
fold lower affinity of OccJ-S91G than OccJ [5]: over 7,000 fold
Kd ([5]; 20 °C, pH 8.0, read-out: K D (F)): 29.9 ± 3.8 µM
Kd ([6]; fluorescence titration, read-out: apparent dissociation constant K D): 0.004 ± 0.001 µM
Kd ([6]; intrinsic protein fluorescence titration, 20 °C, 50 mM Tris-HCl pH 8.0, 150 mM NaCl, 1 µM protein, read-out: K D (F)): 0.004 ± 0.0001 µM
Enthalpy (ΔH) [7]: -0.726 kcal/mol
Entropic contribution (-TΔS) [7]: -5.569 kcal/mol
Entropy (ΔS) [7]: 19 cal/mol/deg
Free enthalpy (ΔG) [7]: -6.295 kcal/mol
Kd [7]: 20 µM
Enthalpy (ΔH) [8]: -4.12 kcal/mol
Entropic contribution (-TΔS) [8]: -6.345 kcal/mol
Entropy (ΔS) [8]: 21.5 cal/mol/deg
Free enthalpy (ΔG) [8]: -10.465 kcal/mol
Kd [8]: 0.016 µM
Kd [9]: 6.1 ± 0.7 µM
K D (ITC) [10]: No interaction; also recorded: cannot bind
Kd [11]: 0.006 ± 0.001 µM
Enthalpy (ΔH) [12]: -3.318 kcal/mol
Entropic contribution (-TΔS) [12]: -2.673 kcal/mol
Entropy (ΔS) [12]: 9.12 cal/mol/deg
Free enthalpy (ΔG) [12]: -5.991 kcal/mol
Kd ([12]; read-out: K D (ITC)): 34 ± 5 µM
Enthalpy (ΔH) [13]: -4.837 kcal/mol
Entropic contribution (-TΔS) [13]: -5.98 kcal/mol
Entropy (ΔS) [13]: 20.4 cal/mol/deg
Free enthalpy (ΔG) [13]: -10.817 kcal/mol
Kd [13]: 0.009 µM
